Reference: ChEMBL document CHEMBL3091317, “Inhibition of cholinesterase and monoamine oxidase-B activity by Tacrine-Homoisoflavonoid hybrids” (Bioorg Med Chem, 2013)
Activity calls are given as the source filed them. The calls are words filed in the database; no cut-off is given here.

Legend:
Cholinesterase = Cholinesterase (Equus caballus, UniProt P81908)
Description: Inhibition of horse serum BuChE using butylthiocholine chloride as substrate preincubated for 15 mins followed by substrate addition measured every 1 min by Ellman method

Acetylcholinesterase [1] = biological target: Acetylcholinesterase (Electrophorus electricus, UniProt O42275)
Description: Inhibition of electric eel AChE using acetylthiocholine chloride as substrate preincubated for 15 mins followed by substrate addition measured every 1 min by Ellman method

[2] = biological target: T1, Amine oxidase [flavin-containing] B (Homo sapiens, UniProt P27338)
T1 sequence (P27338 whole entry): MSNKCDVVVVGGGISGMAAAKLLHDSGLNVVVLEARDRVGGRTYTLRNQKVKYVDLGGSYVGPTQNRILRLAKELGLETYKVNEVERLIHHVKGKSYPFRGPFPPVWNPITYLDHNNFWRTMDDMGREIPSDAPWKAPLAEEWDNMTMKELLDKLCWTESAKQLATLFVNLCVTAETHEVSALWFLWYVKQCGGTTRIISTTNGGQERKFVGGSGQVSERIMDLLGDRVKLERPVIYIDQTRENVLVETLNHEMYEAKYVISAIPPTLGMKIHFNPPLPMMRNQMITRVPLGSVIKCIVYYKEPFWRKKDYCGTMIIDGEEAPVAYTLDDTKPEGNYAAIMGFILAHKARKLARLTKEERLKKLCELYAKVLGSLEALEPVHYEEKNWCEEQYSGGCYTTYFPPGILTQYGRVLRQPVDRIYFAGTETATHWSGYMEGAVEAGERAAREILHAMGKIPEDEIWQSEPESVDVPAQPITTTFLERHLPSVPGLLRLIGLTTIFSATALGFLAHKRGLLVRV
Description: Inhibition of human recombinant MAO-B using benzylamine as substrate preincubated for 15 mins under dark condition followed by substrate addition measured after 20 mins by fluorescence assay

[3] = biological target: T2, Amine oxidase [flavin-containing] A (Homo sapiens, UniProt P21397); settings: 20 min, read-out: INH
T2 sequence (P21397 whole entry): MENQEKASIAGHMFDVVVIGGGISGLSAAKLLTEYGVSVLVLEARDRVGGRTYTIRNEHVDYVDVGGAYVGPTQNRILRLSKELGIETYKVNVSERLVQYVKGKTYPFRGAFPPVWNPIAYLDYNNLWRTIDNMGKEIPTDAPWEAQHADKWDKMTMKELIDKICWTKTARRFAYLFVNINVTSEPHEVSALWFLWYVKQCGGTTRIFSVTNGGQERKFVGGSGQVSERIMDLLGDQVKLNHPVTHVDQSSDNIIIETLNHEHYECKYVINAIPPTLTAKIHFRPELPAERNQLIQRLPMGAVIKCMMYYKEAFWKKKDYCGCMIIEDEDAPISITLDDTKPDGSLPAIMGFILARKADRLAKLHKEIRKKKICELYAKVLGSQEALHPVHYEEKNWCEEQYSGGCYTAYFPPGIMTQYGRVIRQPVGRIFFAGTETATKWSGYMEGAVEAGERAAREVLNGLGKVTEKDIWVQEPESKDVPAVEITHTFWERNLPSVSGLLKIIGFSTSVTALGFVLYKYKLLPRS
Description: Inhibition of human recombinant MAO-A using p-tyramine as substrate assessed as formation of H2O2 at 100 uM preincubated for 15 mins under dark condition followed by substrate addition measured after 20 mins by fluorescence assay relative to control

in vitro = settings: PAMPA
Description: Permeability of the compound at 100 mg/mL after 10 hrs by PAMPA

Acetylcholinesterase [4] = biological target: T3, Acetylcholinesterase (Homo sapiens, UniProt P22303); assay: Inhibition of human erythrocytic AChE using acetylthiocholine chloride as substrate preincubated for 15 mins followed by substrate addition measured every 1 min by Ellman method
[5] = biological target: T1, Amine oxidase [flavin-containing] B; assay: Inhibition of human recombinant MAO-B using benzylamine as substrate at 20 uM preincubated for 15 mins under dark condition followed by substrate addition measured after 20 mins by fluorescence assay
[6] = biological target: Acetylcholinesterase (Electrophorus electricus) (UniProt O42275); assay: Mixed-type inhibition of electric eel AChE using acetylthiocholine chloride as substrate assessed as increase in Km at 60 to 100 nM preincubated for 15 mins followed by substrate addition by Lineweaver-Burk plot analysis
[7] = biological target: T1, Amine oxidase [flavin-containing] B; assay: Inhibition of human recombinant MAO-B at 1 uM incubated for 15 mins prior to washing relative to control; settings: 0.25 h
[8] = biological target: T1, Amine oxidase [flavin-containing] B; assay: Irreversible inhibition of human recombinant MAO-B at 400 nM preincubated for 15 mins followed by repeated washing by centrifugation-ultrafiltration method relative to control
[9] = biological target: T1, Amine oxidase [flavin-containing] B; assay: Irreversible inhibition of human recombinant MAO-B at 1 uM preincubated for 15 mins followed by repeated washing by centrifugation-ultrafiltration method relative to control
Acetylcholinesterase [10] = biological target: T3, Acetylcholinesterase; assay: Inhibition of AChE (unknown origin)-induced beta-amyloid aggregation
[11] = biological target: Acetylcholinesterase (Electrophorus electricus) (UniProt O42275); assay: Mixed-type inhibition of electric eel AChE using acetylthiocholine chloride as substrate assessed as decrease in Vmax at 60 to 100 nM preincubated for 15 mins followed by substrate addition by Lineweaver-Burk plot analysis
[12] = biological target: T1, Amine oxidase [flavin-containing] B; assay: Inhibition of human recombinant MAO-B at 400 nM incubated for 15 mins prior to washing relative to control; settings: 0.25 h

Acetylcholinesterase (Electrophorus electricus, UniProt O42275), sequence (O42275 whole entry): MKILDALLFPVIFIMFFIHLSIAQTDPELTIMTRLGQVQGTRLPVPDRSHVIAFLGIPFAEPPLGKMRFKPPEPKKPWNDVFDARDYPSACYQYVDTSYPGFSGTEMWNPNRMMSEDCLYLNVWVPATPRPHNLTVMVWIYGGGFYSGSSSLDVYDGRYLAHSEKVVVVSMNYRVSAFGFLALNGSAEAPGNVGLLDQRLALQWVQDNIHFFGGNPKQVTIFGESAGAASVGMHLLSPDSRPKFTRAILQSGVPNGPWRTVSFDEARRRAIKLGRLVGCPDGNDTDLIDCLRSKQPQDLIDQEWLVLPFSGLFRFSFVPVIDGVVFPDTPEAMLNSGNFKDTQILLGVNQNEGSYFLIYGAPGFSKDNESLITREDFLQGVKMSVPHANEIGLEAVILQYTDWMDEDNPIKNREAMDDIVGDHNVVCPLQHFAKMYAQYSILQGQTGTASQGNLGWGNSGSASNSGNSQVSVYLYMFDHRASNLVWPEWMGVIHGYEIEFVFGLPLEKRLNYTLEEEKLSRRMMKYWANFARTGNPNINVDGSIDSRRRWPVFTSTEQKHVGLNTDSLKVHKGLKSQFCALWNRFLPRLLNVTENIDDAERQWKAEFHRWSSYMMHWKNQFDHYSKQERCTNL
Cholinesterase, sequence (P81908 whole entry): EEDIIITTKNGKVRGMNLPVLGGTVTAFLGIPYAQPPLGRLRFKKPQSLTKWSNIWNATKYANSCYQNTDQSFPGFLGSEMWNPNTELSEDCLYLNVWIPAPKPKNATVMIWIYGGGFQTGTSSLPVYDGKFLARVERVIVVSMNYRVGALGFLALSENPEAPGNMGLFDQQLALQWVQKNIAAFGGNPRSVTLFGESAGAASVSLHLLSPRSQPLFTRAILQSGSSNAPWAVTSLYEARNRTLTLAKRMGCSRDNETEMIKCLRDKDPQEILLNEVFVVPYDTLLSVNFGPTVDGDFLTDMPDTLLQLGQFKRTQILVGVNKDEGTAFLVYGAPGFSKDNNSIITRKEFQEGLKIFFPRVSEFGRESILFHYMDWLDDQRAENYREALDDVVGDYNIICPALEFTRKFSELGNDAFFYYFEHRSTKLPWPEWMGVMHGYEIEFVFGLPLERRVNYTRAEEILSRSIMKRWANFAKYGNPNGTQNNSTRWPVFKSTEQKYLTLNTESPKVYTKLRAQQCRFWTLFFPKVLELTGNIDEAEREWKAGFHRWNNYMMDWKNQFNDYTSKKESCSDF
T3 sequence (P22303 whole entry): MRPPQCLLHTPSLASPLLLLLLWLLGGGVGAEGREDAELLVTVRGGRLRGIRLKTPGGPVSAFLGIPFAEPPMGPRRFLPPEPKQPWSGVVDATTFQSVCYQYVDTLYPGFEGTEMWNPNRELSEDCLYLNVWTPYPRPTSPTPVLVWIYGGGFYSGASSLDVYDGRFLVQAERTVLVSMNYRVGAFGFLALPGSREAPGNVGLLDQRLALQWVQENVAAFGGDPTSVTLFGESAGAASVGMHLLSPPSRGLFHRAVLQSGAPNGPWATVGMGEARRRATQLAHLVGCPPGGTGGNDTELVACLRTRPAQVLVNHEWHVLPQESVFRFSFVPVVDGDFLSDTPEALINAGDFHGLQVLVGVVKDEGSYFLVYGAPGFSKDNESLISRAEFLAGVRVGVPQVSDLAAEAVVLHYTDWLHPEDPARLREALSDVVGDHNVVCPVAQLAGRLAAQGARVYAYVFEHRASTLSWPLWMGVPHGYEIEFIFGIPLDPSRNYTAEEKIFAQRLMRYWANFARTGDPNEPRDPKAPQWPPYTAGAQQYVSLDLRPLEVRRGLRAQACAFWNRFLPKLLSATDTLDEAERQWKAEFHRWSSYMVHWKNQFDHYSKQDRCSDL
Acetylcholinesterase (Electrophorus electricus), sequence (O42275 24-633 limits assumed): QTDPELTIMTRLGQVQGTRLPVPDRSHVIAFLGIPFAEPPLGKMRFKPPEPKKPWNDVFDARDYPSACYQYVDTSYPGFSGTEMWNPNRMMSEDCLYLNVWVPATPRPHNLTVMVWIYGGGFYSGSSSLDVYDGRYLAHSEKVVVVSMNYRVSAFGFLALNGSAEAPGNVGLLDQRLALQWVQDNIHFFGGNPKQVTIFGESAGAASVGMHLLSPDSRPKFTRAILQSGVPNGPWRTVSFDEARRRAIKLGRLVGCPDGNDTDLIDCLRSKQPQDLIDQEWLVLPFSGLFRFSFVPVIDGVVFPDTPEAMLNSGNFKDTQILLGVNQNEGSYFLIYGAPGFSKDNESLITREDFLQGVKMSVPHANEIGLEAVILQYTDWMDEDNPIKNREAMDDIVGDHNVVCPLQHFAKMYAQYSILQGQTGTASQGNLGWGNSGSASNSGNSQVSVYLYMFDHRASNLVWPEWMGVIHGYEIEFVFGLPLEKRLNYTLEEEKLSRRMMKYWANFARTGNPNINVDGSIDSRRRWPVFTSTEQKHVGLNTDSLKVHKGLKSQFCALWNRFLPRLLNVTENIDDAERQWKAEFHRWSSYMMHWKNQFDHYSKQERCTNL

COc1ccc(/C=C2\COc3cc(OCCCCCCCCNc4c5c(nc6cc(Cl)ccc46)CCCC5)ccc3C2=O)cc1
IC50 (Cholinesterase): 612 nM
IC50 (Acetylcholinesterase [1]): 188 nM
IC50 [2]: 1560 nM
inhibition at 100 µM [3]: 33.1%

COc1ccccc1/C=C1\COc2cc(OCCCCCCNc3c4c(nc5ccccc35)CCCC4)ccc2C1=O
IC50 (Cholinesterase): 29.9 nM
IC50 (Acetylcholinesterase [1]): 151 nM
IC50 [2]: 1790 nM
inhibition at 100 µM [3]: 70.3%

COc1ccc(/C=C2\COc3cc(OCCCCCCNc4c5c(nc6cc(Cl)ccc46)CCCC5)ccc3C2=O)cc1
IC50 (Cholinesterase): 25.9 nM
IC50 (Acetylcholinesterase [1]): 123 nM
IC50 [2]: 1360 nM
inhibition at 100 µM [3]: 15.3%

COc1ccc(/C=C2\COc3cc(O)ccc3C2=O)cc1 [BONDUCELLIN]
IC50 (Cholinesterase): > 100000 nM
IC50 (Acetylcholinesterase [1]): > 100000 nM
IC50 [2]: 1060 nM
inhibition at 100 µM [3]: 24.1%

COc1ccc(/C=C2\COc3cc(OCCCCCCCCNc4c5c(nc6ccccc46)CCCC5)ccc3C2=O)cc1
IC50 (Cholinesterase): 93.1 nM
Papp at 10 h, 100 mg/mL (in vitro): 4.9 ×10⁻⁶ cm/s
IC50 (Acetylcholinesterase [1]): 68.5 nM
IC50 [2]: 518 nM
IC50 (Acetylcholinesterase [4]): 122 nM
inhibition at 100 µM [3]: 64.8%

O=C1/C(=C/c2ccc(Cl)cc2)COc2cc(OCCCCCCNc3c4c(nc5ccccc35)CCCC4)ccc21
IC50 (Cholinesterase): 44.5 nM
Papp at 10 h, 100 mg/mL (in vitro): 1.1 ×10⁻⁶ cm/s
IC50 (Acetylcholinesterase [1]): 101 nM
IC50 [2]: 15400 nM
inhibition at 100 µM [3]: 23.3%

COc1ccc(/C=C2\COc3cc(OCCCCCCNc4c5c(nc6ccccc46)CCCC5)ccc3C2=O)cc1OC
IC50 (Cholinesterase): 34.7 nM
IC50 (Acetylcholinesterase [1]): 117 nM
IC50 [2]: 19700 nM
inhibition at 100 µM [3]: 51.6%

COc1cccc(/C=C2\COc3cc(OCCCCCCNc4c5c(nc6ccccc46)CCCC5)ccc3C2=O)c1
IC50 (Cholinesterase): 47.1 nM
IC50 (Acetylcholinesterase [1]): 142 nM
IC50 [2]: 2200 nM
inhibition at 100 µM [3]: 54.1%

COc1cc(/C=C2\COc3cc(OCCCCCCNc4c5c(nc6ccccc46)CCCC5)ccc3C2=O)cc(OC)c1OC
IC50 (Cholinesterase): 109 nM
IC50 (Acetylcholinesterase [1]): 106 nM
inhibition (INH) [5]: Not Active
inhibition at 100 µM [3]: 25.7%

CN(C)c1ccc(/C=C2\COc3cc(OCCCCCCNc4c5c(nc6ccccc46)CCCC5)ccc3C2=O)cc1
IC50 (Cholinesterase): 65.7 nM
IC50 (Acetylcholinesterase [1]): 115 nM
IC50 [2]: 1030 nM
inhibition at 100 µM [3]: 31.5%

COc1ccc(/C=C2\COc3cc(OCCCCCCNc4c5c(nc6ccccc46)CCCC5)ccc3C2=O)cc1
inhibition [6]: Active
IC50 (Cholinesterase): 33 nM
inhibition at 1 µM [7]: 78.4%
Papp at 10 h, 100 mg/mL (in vitro): 6.8 ×10⁻⁶ cm/s
IC50 (Acetylcholinesterase [1]): 67.9 nM
IC50 [2]: 401 nM
inhibition at 0.4 µM [8]: 33.5%
inhibition at 1 µM [9]: 67.5%
IC50 (Acetylcholinesterase [4]): 157 nM
inhibition (Acetylcholinesterase [10]): Active
inhibition [11]: Active
inhibition at 100 µM [3]: 48.3%
inhibition at 0.4 µM [12]: 47.1%

COc1ccc(/C=C2\COc3cc(OCCCCCNc4c5c(nc6ccccc46)CCCC5)ccc3C2=O)cc1
IC50 (Cholinesterase): 23.6 nM
Papp at 10 h, 100 mg/mL (in vitro): 6.6 ×10⁻⁶ cm/s
IC50 (Acetylcholinesterase [1]): 78.3 nM
IC50 [2]: 1160 nM
IC50 (Acetylcholinesterase [4]): 98 nM
inhibition at 100 µM [3]: 58.4%

COc1ccc(/C=C2\COc3cc(OCCCCCCCCCNc4c5c(nc6ccccc46)CCCC5)ccc3C2=O)cc1
IC50 (Cholinesterase): 30.9 nM
IC50 (Acetylcholinesterase [1]): 169 nM
IC50 [2]: 437 nM
inhibition at 100 µM [3]: 60.2%

Cc1ccc(/C=C2\COc3cc(OCCCCCCNc4c5c(nc6ccccc46)CCCC5)ccc3C2=O)cc1
IC50 (Cholinesterase): 54.6 nM
IC50 (Acetylcholinesterase [1]): 129 nM
IC50 [2]: 1240 nM
inhibition at 100 µM [3]: 60.5%

O=C1/C(=C/c2ccc(F)cc2)COc2cc(OCCCCCCNc3c4c(nc5ccccc35)CCCC4)ccc21
IC50 (Cholinesterase): 44.2 nM
Papp at 10 h, 100 mg/mL (in vitro): 4 ×10⁻⁶ cm/s
IC50 (Acetylcholinesterase [1]): 70.1 nM
IC50 [2]: 1090 nM
IC50 (Acetylcholinesterase [4]): 105 nM
inhibition at 100 µM [3]: 58.4%

COc1ccc(/C=C2\COc3cc(OCCCCCCCCCCNc4c5c(nc6ccccc46)CCCC5)ccc3C2=O)cc1
IC50 (Cholinesterase): 6.2 nM
IC50 (Acetylcholinesterase [1]): 888 nM
IC50 [2]: 3430 nM
inhibition at 100 µM [3]: 69.6%

COc1ccc(CC2COc3cc(OCCCCCCNc4c5c(nc6ccccc46)CCCC5)ccc3C2=O)cc1 (centres undefined)
IC50 (Cholinesterase): 27.4 nM
Papp at 10 h, 100 mg/mL (in vitro): 2.8 ×10⁻⁶ cm/s
IC50 (Acetylcholinesterase [1]): 91.7 nM
IC50 [2]: 1110 nM
inhibition at 100 µM [3]: 78.2%

CCN(CC)c1ccc(/C=C2\COc3cc(OCCCCCCNc4c5c(nc6ccccc46)CCCC5)ccc3C2=O)cc1
IC50 (Cholinesterase): 235 nM
IC50 (Acetylcholinesterase [1]): 693 nM
inhibition (INH) [5]: Not Active
inhibition at 100 µM [3]: 22.4%
